According to patent publication US11365227B2, “Peptide and pharmaceutical compositions of same for use as an antimicrobial and in cancer treatment” (UNIVERSITAT DE VALÈNCIA, priority 2017, dated 2022):
Where no end group is shown, it is not given here.

Experiments:
[1] = tested on: MDA-MB-231 triple-negative breast cancer cells; experiment: MTS cell viability, combined treatments of PaSK with chemotherapeutic agents
[2] = tested on: S. aureus; experiment: Scanning electron microscopy of S. aureus cells treated with peptides; format: cell-based, Staphylococcus aureus subsp. aureus CECT 4013; settings: 25 μg/mL, 1 h
Experimental: The cells were prepared in the same way as for the flow cytometry technique and the same aliquots and treatments were performed. The samples were incubated at 37° C. for 1 h. The bacteria were fixed with Karnosky (2.5% paraformaldehyde and 0.5 glutaraldehyde) for 2 h at 4° C. After washing (centrifuging and eliminating the supernatant) they were fixed with 2% osmium tetraoxide for another 2 h, washed again and filtered with a 0.2 μm filter. The cells were then dehydrated in graded ethanol series (30°, 50°, 70°, 90°, 100°) for 10 min in each gradation. To carry out the critical point drying, the ethanol was replaced with liquid CO2, the temperature was increased to accelerate evaporation and the pressure was lowered slowly to conserve the exact shape of the bacteria. Finally, shading with gold palladium was performed for 2 min observing the results in the equipment FEG-SEM HITACHI S4800 at 10 Kv.
Scanning electron microscopy provides high-resolution images used to view the damage caused by the peptides to the bacterial membrane. The cells of S. aureus CECT 4013 were treated with the peptides hBD-3, TcDef3-pep and PaSK at a concentration of 25 μg/mL, for 1 h, and analysed using scanning electron microscopy (FIG. 4). In cells without treatment the circular and uniform form typical of S. aureus was observed, with the intact membrane, while in treated cells various types of morphological alterations can be seen. […] With this treatment small circular structures are observed, smaller than the cells of S. aureus.

[3] = tested on: S. aureus; settings: 10 μg/mL; Contreras et al., 2015; cited from earlier work
[4] = tested on: S. aureus; experiment: Antimicrobial activity by flow cytometry (SYBR Green / propidium iodide); format: cell-based, Staphylococcus aureus subsp. aureus CECT 4013; settings: 25 μg/mL, 8 h at 37° C., 2 replicates
Experimental: The strain used was CECT 4013 of S. aureus subsp. aureus, publicly accessible deposited in the Spanish Type Culture Collection (CECT).
Starting from cells of S. aureus cultured overnight in a liquid medium LB (peptone 1%, yeast extract 0.5% and NaCl 1%) at 37° C. with stirring, aliquots were obtained in a new liquid medium and allowed to grow until reaching an optical density at 600 nm (OD600) of 0.5, optimum for detection in the flow cytometer. Aliquots were prepared with a concentration of 5×10^6 cfu/100 μL of S. aureus to which were added 10, 15, 20 and 25 μg/mL of PaSK, 25 μg/mL of TcDef3-pep and H2O (negative control), solvent used to dilute the peptides. The mixtures were incubated at 37° C. for 8 h and marked with the fluorochromes SYBR Green (Invitrogen) (25 μL of a SYBR Green 25× solution in H2O) that stains all the cells and propidium iodide (Sigma) (10 μL of propidium iodide 1 mg/mL) that stains dead cells. Finally, the cell death caused by the peptides was analysed by flow cytometry with the equipment BD Facs Verse (Becton Dickinson), from the cell culture and flow cytometry section of the Central Services for Research Support of the University of Valencia. The experiments were performed in duplicate.
The flow cytometer forces cells to pass one by one through a needle, creating a thin line of liquid and detecting how the laser beam (argon emission laser at 488 nm, in the equipment used) interacts with the cells, depending on how the incident light is deviated and the fluorescence emitted by the excited fluorochromes. The results are presented as graphs obtained with the analysis program BD Facs suite v1.0.5.3841 (Becton Dickinson). […] Then, a second graph is obtained with the parameters SSC and FITC (fluorescence parameter indicating the cells containing SYBR Green), to differentiate the cells from the other particles that may be present in the sample. Lastly, a third graph is obtained with the fluorescence parameters FITC and PerCPCy5.5 (indicating the cells stained with propidium iodide) to differentiate the cells that have been stained only by SYBR Green from those stained with propidium iodide, which will be those that have died.
The antimicrobial activity of the peptide PaSK was determined by flow cytometry. […] Therefore, the use of these two fluorochromes provides a method for determining viable cells, quantifying the loss of cell viability from the increase in propidium iodide inside the dead cells.
After incubating the cells of strain CECT 4013 of S. aureus with 25 μg/mL of the peptides TcDef3-pep and PaSK, the percentage of dead cells was determined. […] FIGS. 1A-1D show the graphs corresponding to the fluorescence obtained in the windows of the flow cytometer.

[5] = tested on: S. aureus; experiment: Transmission electron microscopy of S. aureus cells treated with peptides; format: cell-based, Staphylococcus aureus subsp. aureus CECT 4013; settings: 25 μg/mL, 1 h
Experimental: The samples were prepared in the same way as for scanning electron microscopy, except for the series of graded dehydration with ethanol, in which only the 90° grade was reached. Then the samples were included in resin in 4 steps: ethanol 96°—resin LR-White 2:1 (20 h), ethanol 100°—resin 2:1 (20 h), ethanol 100°—resin 1:2 (20 h) and 100% resin (24 h at 60° C.). After the samples were included in the resin the block was prepared for ultrathin cuts of 60 nm in the equipment Leica UC6 Ultracut Microtome.
Transmission electron microscopy provides high-resolution images which were used to view the ultrastructural damage caused by the peptides inside the bacteria. The cells of S. aureus CECT 4013 were treated with the peptides hBD-3, TcDef3-pep and PaSK at a concentration of 25 μg/mL, for 1 h, and analysed using transmission electron microscopy (FIG. 6). In cells without treatment, an intact cytoplasm membrane (3) and peptidoglycane wall (2) were observed, typical of a Gram+ bacteria as S. aureus, as well as a division septum (1) without malformations, while in treated cells different types of alterations were observed. […] Small size circular structures (9) are observed. These structures show a different electrodensity from cells and lack a cytoplasm membrane and peptidoglycane wall. The biofilm formed by the cells treated with peptides was also observed in the images obtained by transmission electron microscopy (FIG. 7) and it was not observed in the cells treated with human defensin hBD-3 (FIG. 6).

[6] = chemotherapeutic agent alone, 72 h, 3 replicates

EC50 ([1]; Homo sapiens, MDA-MB-231, 72 h) [µM] | Compound | EC50 [1, 6] [µM] | biofilm formation, scanning electron microscopy [2] | morphological alterations, scanning electron microscopy [2] | percentage of dead cells (cytotoxicity) [4] | ultrastructural damage, transmission electron microscopy [5] | also measured
 | N.N.[Cl][Pt][Cl] [cisplatin] | 168 ± 53.9 |  |  |  |  | 
0.008 ± 0.005 | CC(=O)O[C@H]1C(=O)[C@@]2(C)[C@H]([C@H](OC(=O)c3ccccc3)[C@]3(O)C[C@H](OC(=O)[C@H](O)[C@@H](NC(=O)c4ccccc4)c4ccccc4)C(C)=C1C3(C)C)[C@]1(OC(C)=O)CO[C@@H]1C[C@@H]2O [paclitaxel] |  |  |  |  |  | 
0.407 ± 0.033 | COc1cccc2c1C(=O)c1c(O)c3c(c(O)c1C2=O)C[C@@](O)(C(=O)CO)C[C@@H]3O[C@H]1C[C@H](N)[C@H](O)[C@H](C)O1 [doxorubicin] |  |  |  |  |  | 
 | TcDef3-pep: 29 amino acid peptide fragment of Tribolium castaneum defensin 3, SEQ ID NO: 2, disclosed in Contreras et al., 2015 (VNHAACAAHCLLKRKRGGYCNKRRICVCR) |  | biofilm produced | bulges are observed in the bacterial membrane | ~55% | malformations and bulges in the bacterial membrane | mortality percentage [3]: 9.2%
 | hBD-3: human defensin hBD-3 (PeptaNova), positive control (GIINTLQKYYCRVRGGRCAVLSCLPKEEQIGKCSTRGRKCCRRKK; ends and bridges not checked; cysteine pairing not given here; UniProt P81534 23-67, looked up) |  | did not form a biofilm | structural damage and lysis of the membrane | around 70% | malformations (4) and lysis of the membrane | 
 | O=c1[nH]cc(F)c(=O)[nH]1 [5-fluorouracyl] | 25.3 ± 4.33 |  |  |  |  | 
